Where two headings read alike, the source gives them in different places.
Legend:
CH3/HeJ mice = experiment: Mouse Tail Suspension Assay (Acute), TST; assay type: in vivo; conditions: Mus musculus, po, 7 min, p.o., 7-min session
Protocol: In the tail suspension test (TST) for evaluating compounds for anti-depressant activity, mice are suspended by their tails to a metal or plastic rod using clip or scotch tape. The test is usually quite short, 5-7 min, and the amount of time the mice spend immobile is recorded either manually or with an automated device. Agents which have antidepressant activity, decrease the duration of immobility of mice in this test.
The basic apparatus for the tail suspension assay consisted of a yellow plastic chamber (91×45×10 cm) divided for four arenas 25, 20, 20 and 25 cm wide separated by yellow plastic walls 0.75 cm thick. Mice were suspended by their tails using a rubber clip (7 cm long) attached to the plastic rod that was placed on the top of a testing chamber half way through its deep dimension. Each experimental session was videotaped and analyzed for four animals in the real time by computer software (“Depression Scan” Clever Sys Inc.). The computer justification of immobility was calibrated with the use of animals dosed with lorazepam while justification of movement was calibrated with the high dose of desipramine treated animals. Control, vehicle treated animals and animals treated with Compound #8 were analyzed under the calibrated settings. The settings were adjusted separately for dark (CH3/HeJ and C57Bl/6J strains) and white mice (Balb/cJ and A/J strains). A yellow background was used for dark mice and a blue background was used to record movements of white mice.
The ability of a test compound to decrease the duration of immobility, or increase mobility was measured using the TST procedure described above. Acute treatment with clinically effective antidepressants and/or novel compounds that have potential antidepressant properties decrease the duration of immobility and at the same time increases mobility in the TST.
Data were analyzed using GraphPad Prism software (GraphPad Software, Inc. San Diego, Calif.). For the comparison of the effect of different doses for various drugs on immobility in the TST one-way analyses of variance (ANOVA) were used followed by Dunnett's multiple comparison test. […] The ED50 and Emax values were compared using two-way ANOVA and Bonferroni post-hoc test.
Positive controls included duloxetine (DLX), venlafaxine (VLX)and desipramine (DMI) which were dissolved in 0.5% methylcellulose and lorazepam (LOR) which was suspended in 0.5% of methylcellulose in water by sonication. All drugs and vehicles were administered orally (p.o.) by gavage in a volume of 10 mL/kg.
The mice were ordered 5 weeks old and at the beginning of experiment their weight was 20±5 g. Animals were housed in groups of four in plastic cages at an ambient temperature of 21° C. to 23° C. with an automated 12/12 hours light/dark cycle and access to water and a commercial rodent food ad libitum.
Each experiment consisted of seven treatment groups with four animals per group. A total of 28 animals per experiment were used. Every two consecutive experiments (1 & 2, 3 & 4, 5 & 6 and 7 & 8) were exact replicas of each other. […] One treatment group of four animals in each experiment was a vehicle treated group. In addition to the vehicle treated group, the effects of DMI at 6 mg/kg, 12 mg/kg, 30 mg/kg, 60 mg/kg and 120 mg/kg and LOR at 5 mg/kg were tested in experiments 1 and 2. […] In experiments 5 and 6 the effects of DLX at 6 mg/kg, 12 mg/kg, 30 mg/kg, 60 mg/kg, 120 mg/kg and LOR at 5 mg/kg were tested. […]

Male Sprague Dawley rats = experiment: Forced Swim Test (Acute), FST; assay type: in vivo
Protocol: The Forced Swim test (FST) is a commonly used procedure to screen compounds for possible antidepressant properties. This test is also known as the behavioral despair test. Rodents placed in […] tanks filled with water present a wide variety of escape or immobility behaviors. Antidepressant drugs from different classes markedly increase escape behaviors and/or decrease latency or duration of immobility.
Venlafaxine and desipramine were dissolved in water. All drugs and their vehicles were administered orally (p.o.) by gavage in a volume of 5 mL/kg.
Male Sprague Dawley rats (140 to 160 g) from Charles River Laboratories Wilmington, Mass. were used. The animals went through a five-day quarantine period before being subjected to the experimental procedure.
Animals were housed in groups of four in plastic cages at an ambient temperature of 21° C. to 23° C. with an automated 12 hour light/dark cycle and access to water and commercial rodent food ad libitum. Animals were not handled more than for the routine bedding change prior to pre-test swim session.
Each experiment consisted of seven treatment groups with n=4 animals per group. A total of 28 animals per experiment were used. Two consecutive experiments (1 and 2, 3 and 4, and 5 and 6) were exact replicas of each other. […] One treatment group of n=4 animals in each experiment was a vehicle treated group. […] In experiments 5 and 6 the effects of venlafaxine and maprotyline at 12 mg/kg, 30 mg/kg, and 60 mg/kg were tested.
The basic apparatus consisted of a cylinder (46 cm tall×˜20 cm diameter) filled with water to 30 cm deep, at a temperature of 25±1° C. The automated version of the FST was used to perform the experiments. Plumbing for automatic filling and emptying water connected the four cylinders. Cylinders were placed in the dividing chambers 25 cm wide to separate animals visually. Each 5-minute experimental session was videotaped and analyzed in real time by computer software (Clever Systems, Inc.) for four animals at a time. The immobility, swimming, climbing and escape times were recorded by the software. The four activities are defined as follow. Immobility: the animal floats motionlessly or makes only those movements necessary to keep its head above water; Climb: the animal vigorously moves vertically while scratching the wall around the cylinder; Swim: the animal moves horizontally around in the cylinder more than necessary to keep its head above water; and Escape: sum of all vigorous active movements.
The ability of a test compound to decrease the duration or frequency of immobility, or changes in swimming, climbing and escape times, was measured using the FST procedure described above. […] The analysis of the results in the studies described was focused on the immobility time during 5-minute test session.
There were two swim sessions in each experiment. First, a pre-test swim session for 15 minutes was performed. Following 48 hours later was a test session of 5-minute duration. Upon completion of a swim session, each animal was placed under a heat lamp in a cage with soft bedding for approximately 15 minutes to prevent hypothermia.
Animals were pre-treated with a vehicle or test compound after completing the pre-test swim session, then 24 hours later and then shortly prior to the 5-minute test session; i.e., three injections were given to each animal between the two swim sessions that occurred on 3 consecutive days.
Data were analyzed using GraphPad Prism software (GraphPad Software, Inc. San Diego, Calif.). For the comparison of the effect of different doses for various drugs on immobility in the FST one-way ANOVA was used followed by Dunnett's multiple comparison test. […] The ED50 and Emax values were statistically compared using two-tail t-test.

Male Wistar rats = experiment: Chronic Mild Stress Model (Chronic), sucrose consumption; assay type: in vivo; conditions: stressed animals, once daily i.p.
From the text: In the chronic mild stress (CMS) model rats subjected to a variety of mild stressors for a prolonged period of time show, among other behavioural, biochemical and physiological impairments, a substantial decrease in their responsiveness to rewarding stimuli. This deficit is usually monitored by a decrease in the consumption of the 1% sucrose solution, but can also be seen in other tests, such as place preference conditioning or intracranial self-stimulation. Since the subsensitivity to reward appears to reflect anhedonia (inability to experience pleasure), which is a core symptom of major depressive disorders, the CMS procedure may serve as a suitable research tool in studies into the mechanisms of antidepressant action.
Male Wistar rats were brought into the laboratory two months before the start of the experiment. Except as described below, the animals were singly housed with food and water freely available, and were maintained on a 12-h light/dark and in a constant temperature (22±2° C.) and humidity (50±5%) conditions.
The animals were first trained to consume a 1% sucrose solution; training consisted of eight 1 h baseline tests in which sucrose was presented, in the home cage, following 14 h food and water deprivation; the sucrose intake was measured by weighing pre-weighed bottles containing the sucrose solution, at the end of the test. Subsequently, sucrose consumption was monitored, under similar conditions, at weekly intervals throughout the whole experiment.
On the basis of their sucrose intakes in the final baseline test, the animals were divided into two matched groups. One group of animals was subjected to the chronic mild stress procedure for a period of 7 consecutive weeks. Each week of stress regime consisted of: two periods of food or water deprivation, two periods of 45 degree cage tilt, two periods of intermittent illumination (lights on and off every 2 h), two periods of soiled cage (250 ml water in sawdust bedding), one period of paired housing, two periods of low intensity stroboscopic illumination (150 flashes/min), and three periods of no stress. All stressors were 10-14 h of duration and were applied individually and continuously, day and night. Control animals were housed in separate rooms and had no contact with the stressed animals. They were deprived of food and water for the 14 h preceding each sucrose test, but otherwise food and water were freely available in the home cage.
The drugs were administered at approx. 10.00 and the weekly sucrose tests were carried out 24 h following the last drug injections. […]
All results obtained in this study were analyzed by multiple analyses of variance with three between-subjects factors (stress/control, drug treatments and successive sucrose tests). […]

[1] = tested on: stressed and non-stressed animals; experiment: Resident/Intruder Assay (Chronic Social Stress Assay); assay type: in vivo; conditions: Forced Swim Test, 10 mg/kg p.o.
From the text: The behavioral resident/intruder assay is used to screen compounds for anti-depressant-like activity.

submissive rats = experiment: Dominant-Submissive Relations (DSR) assay: Reduction of Submissive Behavior Model (RSBM) of depression; assay type: in vivo, Male Sprague Dawley rats; conditions: 10.0 mg/kg i.p.
Protocol: The DSR assay is divided into two models: Reduction of Dominant Behavior Model (RDBM) of mania and Reduction of Submissive Behavior Model (RSBM) of depression. The RDBM, wherein the dominant animals are treated with test compound, is predictive of the ability of the test compound to treat mania. The RSBM, wherein the submissive animals are treated with test compound, is predictive of the ability of the test compound to treat depression.
Male Sprague Dawley rats (140 to 160 g) from Charles River Laboratories Wilmington, Mass. were used in this assay. Shipments of rats were received at two-week intervals. Each shipment went through five-day quarantine, one-week acclimation period, and one-week selection process, followed by five-weeks of drug or vehicle treatment to those pairs selected.
Rats were housed four per cage. Access to food was restricted to one hour per day after testing on Monday through Thursday. After testing on Friday, rats had free access to food until being fasted again on Sunday. At no time were the rats deprived of water. The food deprivation periods used had little effect on weight gain as the average weight of rats was about 300 g at the end of the study. At the conclusion of experiment rats were sacrificed by decapitation, the trunk blood and brains were collected for in vitro experiments and drug concentration measurements.
The basic testing apparatus consisted of two chambers connected with a tunnel only large enough to allow one rat to pass through at a time. On the floor, at the mid-point of the tunnel was a container of sweetened milk. This basic apparatus was replicated, so that a total of four pairs of rats can be video tracked simultaneously. The camera can distinguish rats marked by different colors. Thus, the rats' heads were colored for the purpose of video tracking, red in one cage and yellow in the other cage. Only one animal at a time can have comfortable access to the feeder, but both animals can drink milk during the five-minute daily session. During the five-minute daily sessions, time spent in the feeder zone by each rat was recorded by the video tracking software and saved into a text file.
The test began with a random assignment of rats into pairs. Each member of a pair was placed in an opposite chamber of the testing apparatus. The time spent in the feeder zone by each animal was recorded. During the first week (five days) of testing the animals habituate to the new environment. Dominance was assigned to the animal with the highest score during the second week of testing if three criteria were achieved. First, there must have been a significant difference (two-tailed t-test, P<0.05) between the average daily drinking scores of both animals. Second, the dominant animal score must have been at least 25% greater than the submissive animal's score. Finally, there must have been no “reversals” during the pair selection week where the putative submissive rat out-scored its dominant partner on isolated occasions. Ideally there were minimal reversals during the acclimation week as well. About twenty-five to thirty-three percent of the initial animal pairs achieved these criteria and only these pairs were continued in the study.
Significant differences between time spent on the feeder by dominant and submissive rats were determined by ANOVA using GraphPad Prism software (GraphPad Software, Inc. San Diego, Calif.) followed by a two-tailed t-test (P<0.05). Comparisons were made between treatment groups using normalized dominance level values in paired animals. The dominance level is a value that measures social relation between paired subjects. Dominance level (DL)=FTD−FTS where FTD is the feeder time of dominant rats and FTS is the feeder time of submissive rats. The normalization was conducted according to the formula: Dominance Level (week n in %)=(Dominance Level (week n))/(Dominance Level (week 2) […]

Compound: CNCCCN1c2ccccc2CCc2ccccc21 [DMI, desipramine, reference compound]
- ED50 (CH3/HeJ mice; read-out: Immobility ED50): 27.4 mg/kg
- ED50 (CH3/HeJ mice; read-out: Mobility ED50): 24.4 mg/kg
- ED50 (Male Sprague Dawley rats; Rattus norvegicus, po, 5 min, p.o., three administrations, 5-minute test session, read-out: ED50 (immobility)): 2 ± 0.1 mg/kg
- Emax (immobility) (Male Sprague Dawley rats; p.o., immobility): 50.0 ± 8.4 s

Compound: CN(C)CCCN1c2ccccc2CCc2ccccc21 [Imipramine, imipramine, reference compound]
- treatment time until increase in sucrose intake reached statistical significance vs Week 0 (Male Wistar rats): four weeks

Compound: O=C1Nc2ccc(Cl)cc2C(c2ccccc2Cl)=NC1O (stereo not shown) [Lorazepam, lorazepam, reference compound]
- effect on immobility time (Male Sprague Dawley rats; 1 mg/kg p.o., negative control): no significant effect

Compound: COc1ccc(C(CN(C)C)C2(O)CCCCC2)cc1 (stereo not shown) [Venlafaxine, venlafaxine]
- treatment time until increase in sucrose intake reached statistical significance vs Week 0 (Male Wistar rats): four weeks
- Immobility during 5 min: Week 5 Mean ± SD ([1]; non-stressed): 181.8 ± 27.6
- Immobility during 5 min: Week 5 Mean ± SD ([1]; stressed): 190.4 ± 36.8

Compound: CNCCC(Oc1ccc(C(F)(F)F)cc1)c1ccccc1 (stereo not shown) [fluoxetine, reference compound]
- loss of significant difference between dominant and submissive rats (submissive rats): lost after third week of treatment

— patent US20070155827A1, “USE OF BENZO-FUSED HETEROCYCLE SULFAMIDE DERIVATIVES FOR THE TREATMENT OF DEPRESSION” (priority 2005, published 2007)
